Test results from PubChem BioAssay AID1918942 (Molecular Pharmacology Branch, DTP, NCI, 2023).
“And” between values parts separate entries of the source, which are not always exact repeats. Equal values may be shown once. Values belong to the compound of their own block, whether it stands above or below them.

Tested on: 743489-274-T-PDC complex spheroid viability
Experiment: Anticancer human tumor 743489-274-T-PDC patient-derived renal cell carcinoma cell line growth inhibition
Conditions: for viability, T/C: stronger effect = lower value
Outline: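 Multicellular complex spheroids of tumor cells with human endothelial cells (HUVEC) and mesenchymal stem cells; the LSD1 inhibitor iadademstat was combined with standard-of-care or investigational agents. Top concentration at or near clinical Cmax, half-log dilutions; final DMSO ≤0.25%.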

[1] = curve of first compound, second compound 0.1 µM
[2] = curve of first compound, second compound 0.316 µM
[3] = curve of first compound, second compound 1 µM
[4] = curve of first compound, second compound 3.16 µM
[5] = curve of first compound, second compound 10 µM
[6] = second compound 0.1 µM, first compound 0.00316 µM
[7] = second compound 0.1 µM, first compound 0.01 µM
[8] = second compound 0.1 µM, first compound 0.0316 µM
[9] = second compound 0.1 µM, first compound 0.1 µM
[10] = second compound 0.1 µM, first compound 0.316 µM
[11] = second compound 0.1 µM, first compound 1 µM
[12] = second compound 0.316 µM, first compound 0.00316 µM
[13] = second compound 0.316 µM, first compound 0.01 µM
[14] = second compound 0.316 µM, first compound 0.0316 µM
[15] = second compound 0.316 µM, first compound 0.1 µM
[16] = second compound 0.316 µM, first compound 0.316 µM
[17] = second compound 0.316 µM, first compound 1 µM
[18] = second compound 1 µM, first compound 0.00316 µM
[19] = second compound 1 µM, first compound 0.01 µM
[20] = second compound 1 µM, first compound 0.0316 µM
[21] = second compound 1 µM, first compound 0.1 µM
[22] = second compound 1 µM, first compound 0.316 µM
[23] = second compound 1 µM, first compound 1 µM
[24] = second compound 3.16 µM, first compound 0.00316 µM
[25] = second compound 3.16 µM, first compound 0.01 µM
[26] = second compound 3.16 µM, first compound 0.0316 µM
[27] = second compound 3.16 µM, first compound 0.1 µM
[28] = second compound 3.16 µM, first compound 0.316 µM
[29] = second compound 3.16 µM, first compound 1 µM
[30] = second compound 10 µM, first compound 0.00316 µM
[31] = second compound 10 µM, first compound 0.01 µM
[32] = second compound 10 µM, first compound 0.0316 µM
[33] = second compound 10 µM, first compound 0.1 µM
[34] = second compound 10 µM, first compound 0.316 µM
[35] = second compound 10 µM, first compound 1 µM
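Also: spheroids exposed to compounds for 7 days before readout.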
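For viability, T/C in this document: 100% = DMSO vehicle control wells.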

SMILES: CC1COCCN1c1cc(-c2ccnn2C)c2ccnc(-c3ccn[nH]3)c2n1 (centres undefined) + NC1CC1c1ccc(-c2cccc(O)c2)cc1
IC50 [1]: 448 nM
IC50 [2]: > 1000 nM
IC50 [3]: 716 nM
IC50 [4]: 540 nM
IC50 [5]: 518 nM
viability, T/C [6]: 109%
viability, T/C [7]: 88%
viability, T/C [8]: 85.2%
viability, T/C [9]: 62.9%
viability, T/C [10]: 51.2%
viability, T/C [11]: 44.3%
viability, T/C [12]: 111%
viability, T/C [13]: 104%
viability, T/C [14]: 85.5%
viability, T/C [15]: 65.5%
viability, T/C [16]: 64.5%
viability, T/C [17]: 51.9%
viability, T/C [18]: 98.2%
viability, T/C [19]: 103%
viability, T/C [20]: 82.5%
viability, T/C [21]: 68.9%
viability, T/C [22]: 64.7%
viability, T/C [23]: 44.5%
viability, T/C [24]: 101%
viability, T/C [25]: 90.6%
viability, T/C [26]: 83.8%
viability, T/C [27]: 75.6%
viability, T/C [28]: 55.5%
viability, T/C [29]: 41.5%
viability, T/C [30]: 90.8%
viability, T/C [31]: 98.1%
viability, T/C [32]: 80%
viability, T/C [33]: 75%
viability, T/C [34]: 53.7%
viability, T/C [35]: 43.6%

SMILES: CC(C)c1c(-c2ccccc2)nc2c(C#N)c[nH]n2c1=O + NC1CC1c1ccc(-c2cccc(O)c2)cc1
IC50 [1]: > 10000 nM
IC50 [2]: > 10000 nM
IC50 [3]: > 10000 nM
IC50 [4]: > 10000 nM
IC50 [5]: > 10000 nM
viability, T/C [8]: 110%
viability, T/C [9]: 112%
viability, T/C [10]: 131%
viability, T/C [11]: 105%
viability, T/C (second compound 0.1 µM, first compound 3.16 µM): 113%
viability, T/C (second compound 0.1 µM, first compound 10 µM): 109%
viability, T/C [14]: 104%
viability, T/C [15]: 107%
viability, T/C [16]: 134%
viability, T/C [17]: 100%
viability, T/C (second compound 0.316 µM, first compound 3.16 µM): 115%
viability, T/C (second compound 0.316 µM, first compound 10 µM): 102%
viability, T/C [20]: 110%
viability, T/C [21]: 117%
viability, T/C [22]: 108%
viability, T/C [23]: 116%
viability, T/C (second compound 1 µM, first compound 3.16 µM): 108%
viability, T/C (second compound 1 µM, first compound 10 µM): 114%
viability, T/C [26]: 106%
viability, T/C [27]: 108%
viability, T/C [28]: 114%
viability, T/C [29]: 111%
viability, T/C (second compound 3.16 µM, first compound 3.16 µM): 105%
viability, T/C (second compound 3.16 µM, first compound 10 µM): 124%
viability, T/C [32]: 130%
viability, T/C [33]: 105%
viability, T/C [34]: 116%
viability, T/C [35]: 102%
viability, T/C (second compound 10 µM, first compound 3.16 µM): 106%
viability, T/C (second compound 10 µM, first compound 10 µM): 109%

SMILES: CC1COCCN1c1cc(-c2ccnn2C)c2ccnc(-c3ccn[nH]3)c2n1 (centres undefined) + NC1CCC(NC2CC2c2ccccc2)CC1
IC50 [1]: > 1000 nM
IC50 [2]: > 1000 nM
IC50 [3]: > 1000 nM
IC50 [4]: > 1000 nM
IC50 [5]: > 1000 nM
viability, T/C [6]: 111%
viability, T/C [7]: 109%
viability, T/C [8]: 107%
viability, T/C [9]: 92.6%
viability, T/C [10]: 81.6%
viability, T/C [11]: 64%
viability, T/C [12]: 126%
viability, T/C [13]: 110%
viability, T/C [14]: 114%
viability, T/C [15]: 87.1%
viability, T/C [16]: 83%
viability, T/C [17]: 62.7%
viability, T/C [18]: 109%
viability, T/C [19]: 128%
viability, T/C [20]: 118%
viability, T/C [21]: 98%
viability, T/C [22]: 90.2%
viability, T/C [23]: 59.5%
viability, T/C [24]: 122%
viability, T/C [25]: 138%
viability, T/C [26]: 110%
viability, T/C [27]: 101%
viability, T/C [28]: 84.5%
viability, T/C [29]: 76.1%
viability, T/C [30]: 131%
viability, T/C [31]: 117%
viability, T/C [32]: 129%
viability, T/C [33]: 105%
viability, T/C [34]: 88.9%
viability, T/C [35]: 71.7%

SMILES: O=C(C=Cc1cccc(S(=O)(=O)Nc2ccccc2)c1)NO + NC1CCC(NC2CC2c2ccccc2)CC1
IC50 [1]: > 3000 nM
IC50 [2]: 2840 nM
IC50 [3]: 2230 nM
IC50 [4]: > 3000 nM
IC50 [5]: 1910 nM
viability, T/C (second compound 0.1 µM, first compound 0.00949 µM): 103%
viability, T/C (second compound 0.1 µM, first compound 0.03 µM): 94.4%
viability, T/C (second compound 0.1 µM, first compound 0.0949 µM): 84.1%
viability, T/C (second compound 0.1 µM, first compound 0.3 µM): 67.9%
viability, T/C (second compound 0.1 µM, first compound 0.949 µM): 81.7%
viability, T/C (second compound 0.1 µM, first compound 3 µM): 62.1%
viability, T/C (second compound 0.316 µM, first compound 0.00949 µM): 102%
viability, T/C (second compound 0.316 µM, first compound 0.03 µM): 96.5%
viability, T/C (second compound 0.316 µM, first compound 0.0949 µM): 87.8%
viability, T/C (second compound 0.316 µM, first compound 0.3 µM): 80.9%
viability, T/C (second compound 0.316 µM, first compound 0.949 µM): 69.3%
viability, T/C (second compound 0.316 µM, first compound 3 µM): 47.4%
viability, T/C (second compound 1 µM, first compound 0.00949 µM): 100%
viability, T/C (second compound 1 µM, first compound 0.03 µM): 107%
viability, T/C (second compound 1 µM, first compound 0.0949 µM): 98.5%
viability, T/C (second compound 1 µM, first compound 0.3 µM): 78.7%
viability, T/C (second compound 1 µM, first compound 0.949 µM): 78.5%
viability, T/C (second compound 1 µM, first compound 3 µM): 41.2%
viability, T/C (second compound 3.16 µM, first compound 0.00949 µM): 108%
viability, T/C (second compound 3.16 µM, first compound 0.03 µM): 105%
viability, T/C (second compound 3.16 µM, first compound 0.0949 µM): 95.5%
viability, T/C (second compound 3.16 µM, first compound 0.3 µM): 78.2%
viability, T/C (second compound 3.16 µM, first compound 0.949 µM): 69.2%
viability, T/C (second compound 3.16 µM, first compound 3 µM): 51.9%
viability, T/C (second compound 10 µM, first compound 0.00949 µM): 109%
viability, T/C (second compound 10 µM, first compound 0.03 µM): 96.2%
viability, T/C (second compound 10 µM, first compound 0.0949 µM): 106%
viability, T/C (second compound 10 µM, first compound 0.3 µM): 74.9%
viability, T/C (second compound 10 µM, first compound 0.949 µM): 65.6%
viability, T/C (second compound 10 µM, first compound 3 µM): 41.4%

SMILES: Cn1ncnc1C1c2n[nH]c(=O)c3cc(F)cc(c23)NC1c1ccc(F)cc1 (centres undefined) + NC1CCC(NC2CC2c2ccccc2)CC1
IC50 [1]: > 100 nM
IC50 [2]: > 100 nM
IC50 [3]: > 100 nM
IC50 [4]: > 100 nM
IC50 [5]: > 100 nM
viability, T/C (second compound 0.1 µM, first compound 0.000316 µM): 121%
viability, T/C (second compound 0.1 µM, first compound 0.001 µM): 99.1%
viability, T/C [6]: 100%
viability, T/C [7]: 103%
viability, T/C [8]: 101%
viability, T/C [9]: 86.2%
viability, T/C (second compound 0.316 µM, first compound 0.000316 µM): 105%
viability, T/C (second compound 0.316 µM, first compound 0.001 µM): 102%
viability, T/C [12]: 93.6%
viability, T/C [13]: 115%
viability, T/C [14]: 92%
viability, T/C [15]: 103%
viability, T/C (second compound 1 µM, first compound 0.000316 µM): 104%
viability, T/C (second compound 1 µM, first compound 0.001 µM): 108%
viability, T/C [18]: 90.2%
viability, T/C [19]: 81.7%
viability, T/C [20]: 90.2%
viability, T/C [21]: 84%
viability, T/C (second compound 3.16 µM, first compound 0.000316 µM): 101%
viability, T/C (second compound 3.16 µM, first compound 0.001 µM): 101%
viability, T/C [24]: 101%
viability, T/C [25]: 103%
viability, T/C [26]: 101%
viability, T/C [27]: 94%
viability, T/C (second compound 10 µM, first compound 0.000316 µM): 111%
viability, T/C (second compound 10 µM, first compound 0.001 µM): 98%
viability, T/C [30]: 91.7%
viability, T/C [31]: 103%
viability, T/C [32]: 90.4%
viability, T/C [33]: 97.7%

IC50 (curve of compound): 20.7 nM and 5.36 nM
SMILES: CCc1c2c(nc3ccc(O)cc13)-c1cc3c(c(=O)n1C2)COC(=O)[C@]3(O)CC
viability, T/C (compound 0.000949 µM): 88.1% and 71.3%
viability, T/C (compound 0.003 µM): 68% and 54.2%
viability, T/C (compound 0.00949 µM): 61.9% and 44.5%
viability, T/C (compound 0.03 µM): 40.2% and 45.4%
viability, T/C (compound 0.0949 µM): 45.4% and 44.3%
viability, T/C (compound 0.3 µM): 43.2% and 39.3%

IC50 (curve of compound): > 300 nM
SMILES: Nc1ncn(C2CC(O)C(CO)S2)c(=O)n1 (centres undefined)
viability, T/C (compound 0.000949 µM): 106% and 96.8%
viability, T/C (compound 0.003 µM): 108% and 96.2%
viability, T/C (compound 0.00949 µM): 90.8% and 92%
viability, T/C (compound 0.03 µM): 80.2% and 82.5%
viability, T/C (compound 0.0949 µM): 89.9% and 81.5%
viability, T/C (compound 0.3 µM): 88.7% and 75.2%
